The record followed here is US7521432B2, “Compositions and methods for identifying agents which regulate chromosomal stability, gene activation and aging” (priority 2000, dated 2009).

In the data set the test system is human HeLa cell extracts. As to the kind of experiment: O-acetyl-ADP ribose utilization by enzymes from human HeLa cell extracts. The format is in vitro ADME. To be noted: HeLa cell extract vs buffer control, time points up to 3 hrs, HPLC. On the procedure:
P/CAF [^3H]-monoacetylation of H3 peptide. The histone acetyltransferase P/CAF was used to monoacetylate H3 peptide on Lysine 14 (12). P/CAF (0.175 μM) was mixed with [^3H]-acetyl CoA (33.3 μM, 1.88 Ci/mmol) and H3 peptide (175 μM) for 20 min at 25° C. prior to quenching with TFA to 1%. Mono [^3H]-acetylated H3 peptide was separated from unmodified H3 by HPLC analysis as described above. MALDI/ESI Mass Spectrometry Analyses. MALDI mass spectrometry was performed (Oregon State University, Environmental Health Sciences Center) on a custom-built reflector time-of-flight mass spectrometer equipped with a two-stage delayed extraction source. […] Every mass spectrum was recorded as the sum of 20 consecutive spectra, each produced by a single pulse of photons. […] The amount of [^3H]-AcLys14 H3 peptide and [^3H]-O-acetyl ADP ribose was determined by liquid scintillation counting of these species separated on reverse phase HPLC. […] Protein concentrations of supernatants were determined by the method of Bradford. […]
To provide evidence for the existence of human cellular proteins/enzymes that are capable of binding and catalyzing the conversion or decomposition of O-acetyl-ADP ribose, human HeLa cell extracts were generated and the ability of proteins within the extract to catalyze the decomposition of O-acetyl-ADP ribose was assessed. […]

Consider O-acetyl-ADP ribose, for which the “conversion/consumption of O-acetyl-ADP ribose by cell extract” value is “convert O-acetyl-ADP ribose to a distinct, but as yet unidentified species”. In addition, the “conversion/consumption of O-acetyl-ADP ribose by cell extract” value (listed as O-acetyl ADP ribose) is “capable of consuming O-acetyl ADP ribose”.
